Laboratory results: publication PMC12442081, “Combating Fuel Biocontamination: Tailored Antimicrobial Peptides and an Innovative Delivery Strategy” (ACS Applied Bio Materials, 2025)
Like-named read-outs stand apart in the source and are kept apart here. Where no end group is shown, it is not given here.

Columns and labels:
[1] = test system: Macrococcus caseolyticus (MC); experiment: Effectiveness of peptides on spiked fuel samples (aqueous layer); type: cell-based; parameters: key: (+) =1 (implying peptide activity in fuel environment); (X) = 0 (implying no activity in the desired range, indicated by microbial proliferation); Fuel x = -1(implying no activity in fuel environment); conditions: initial screening in spiked fuel
Method: (§1) To study the partitioning of microbes in fuel tanks, filter-sterilized fuel was mixed with BH medium in a 1:1 (v/v) ratio. The inoculum was added to the aqueous phase at the bottom to simulate growth in the aqueous layer of fuel tanks and incubated aerobically at 30 °C for 30 days. Visible growth was assessed, and aliquots from both the aqueous and fuel phases were plated on nutrient agar plates to evaluate microbial growth. Peptides were initially added to the aqueous layer of microbially spiked fuel samples for screening the effectiveness in the fuel environment. The study was further extended over a longer duration, and incubated under aerobic conditions at 30 °C for 30 days. Microbial growth was monitored at regular intervals by plating aliquots from the aqueous layer on the nutrient agar plates.
(§2) The engineered peptides were administered at their respective MICs to the aqueous layer of simulated fuel samples, and samples from both the aqueous and solvent (fuel) layers were removed at intervals of 7, 14, 21, and 30 days and plated on LBA plates to assess cell viability (Table S5).

Hormoconis resinae (HR) = experiment: as above; type: cell-based; parameters: key: (+) =1 (implying peptide activity in fuel environment); (X) = 0 (implying no activity in the desired range, indicated by microbial proliferation); Fuel x = -1(implying no activity in fuel environment); conditions: initial screening in spiked fuel
Method: as §1, §2

Kocuria rosea (KR) = experiment: as above; type: cell-based; parameters: key: (+) =1 (implying peptide activity in fuel environment); (X) = 0 (implying no activity in the desired range, indicated by microbial proliferation); Fuel x = -1(implying no activity in fuel environment); conditions: initial screening in spiked fuel
Method: as §1, §2

Roseomonas mucosa (RM) = experiment: as above; type: cell-based; parameters: key: (+) =1 (implying peptide activity in fuel environment); (X) = 0 (implying no activity in the desired range, indicated by microbial proliferation); Fuel x = -1(implying no activity in fuel environment); conditions: initial screening in spiked fuel
Method: as §1, §2

[2] = test system: Dermacoccus nishinomiyaensis (DN); experiment: as above; type: cell-based; parameters: key: (+) =1 (implying peptide activity in fuel environment); (X) = 0 (implying no activity in the desired range, indicated by microbial proliferation); Fuel x = -1(implying no activity in fuel environment); conditions: initial screening in spiked fuel
Method: as §1, §2

[3] = test system: Micrococcus yunnanensis (MY); experiment: as above; type: cell-based; parameters: key: (+) =1 (implying peptide activity in fuel environment); (X) = 0 (implying no activity in the desired range, indicated by microbial proliferation); Fuel x = -1(implying no activity in fuel environment); conditions: initial screening in spiked fuel
Method: as §1, §2

[4] = test system: Bacillus licheniformis (BL); experiment: as above; type: cell-based; parameters: key: (+) =1 (implying peptide activity in fuel environment); (X) = 0 (implying no activity in the desired range, indicated by microbial proliferation); Fuel x = -1(implying no activity in fuel environment); conditions: initial screening in spiked fuel
Method: as §1, §2

[5] = test system: Sphingomonas paucimobilis (SP); experiment: as above; type: cell-based; parameters: key: (+) =1 (implying peptide activity in fuel environment); (X) = 0 (implying no activity in the desired range, indicated by microbial proliferation); Fuel x = -1(implying no activity in fuel environment); conditions: initial screening in spiked fuel
Method: as §1, §2

[6] = test system: Pseudomonas aeruginosa (PA); experiment: as above; type: cell-based; parameters: key: (+) =1 (implying peptide activity in fuel environment); (X) = 0 (implying no activity in the desired range, indicated by microbial proliferation); Fuel x = -1(implying no activity in fuel environment); conditions: initial screening in spiked fuel
Method: as §1, §2

[7] = HPLC retention time as a function of peptide hydrophobicity; type: physicochemical; conditions: chromatographic, Polaris 5 C18-A reverse phase, 0.1% TFA water / 0.1% TFA acetonitrile gradient, 30 min, 300 μM peptide
Method: The purity of the peptides was ascertained by high-performance liquid chromatography (HPLC) using Polaris 5 C18-A […] × 4.6 mm reverse phase Zorbax columns from Agilent Technologies. The buffer system contained 0.1% (v/v) TFA in 100% water and 0.1% (v/v) TFA in 100% acetonitrile. Each peptide sample contained 300 μM peptides dissolved in an acetonitrile–water (1:4) mixture. A constant gradient of the two solvent systems was used to generate the chromatogram for 30 min after sample injection.

[8] = test system: microbial clusters MY, KR, DN, MC, BL, RM, SP, PA, HR; experiment: Broad-spectrum activity score (in-house scoring matrix); conditions: sum over 9 microbial clusters: (+) = 1, (X) = 0, Fuel x = -1
Method: Table S4. Summarizing the broad-spectrum activity of the peptides, considering the MIC value/ efficacy to control microbial growth upon fuel co-incubation
Peptides Bacterial clusters Fungal
Actinobacteria Firmicutes Proteobacteria Asco- […]
Peptides identified based on the scoring matrix, where (+) =1 (implying peptide activity in fuel environment); (X) = 0 (implying no activity in the desired range, indicated by microbial proliferation); Fuel x = -1(implying no activity in fuel environment).
Clearly, P17 is the best performing peptide in vitro across diverse microbial phyla as well as when incubated in the fuel environment. Based on the activity of the selected peptides, the best

[9] = test system: Pseudomonas aeruginosa (PA) ATCC 39327; type: cell-based
Method: (§3) All of the bacterial species were grown overnight at 37 °C in LB broth. 10^7 CFU/mL of cells were resuspended in fresh culture and grown until the mid log phase. , The bacterial cells were adjusted to a concentration of 5 × 10^5 CFU/mL to quantify the MIC. Equal volumes of the respective bacterial cultures were incubated with the serially diluted peptides in 96-well microtiter plate and incubated overnight at 37 °C in ambient air. Microorganisms without peptides were treated as the positive control, while uninoculated broth was used as the negative control. The MIC was taken as the lowest peptide concentration at which observable bacteria growth was inhibited, as measured by a microplate reader (Biotek Synergy H1 microplate reader). Experiments were performed in triplicates, and the mean MIC values were determined. A similar study was performed to understand the effect of peptide purity, i.e., ranging from 70 to 95%, on the peptide MIC.

[10] = test system: Bacillus licheniformis (BL) ATCC 14580; type: cell-based
Method: as §3

[11] = test system: Micrococcus yunnanensis (MY) ATCC 12698; type: cell-based
Method: as §3

[12] = test system: Dermacoccus nishinomiyaensis (DN) ATCC 29093; type: cell-based
Method: as §3

[13] = test system: Sphingomonas paucimobilis (SP); type: cell-based
Method: as §3

[14] = test system: Macrococcus caseolyticus (MC) ATCC 13548; type: cell-based
Method: as §3

[15] = LB broth, 5 × 10^5 CFU/mL, overnight 37 °C, mean of triplicates, “–” = no detectable activity

Compound | activity considering MIC value/efficacy upon fuel co-incubation [1] | activity considering MIC value/efficacy upon fuel co-incubation (Hormoconis resinae (HR)) | activity considering MIC value/efficacy upon fuel co-incubation (Kocuria rosea (KR)) | activity considering MIC value/efficacy upon fuel co-incubation (Roseomonas mucosa (RM)) | activity considering MIC value/efficacy upon fuel co-incubation [2] | activity considering MIC value/efficacy upon fuel co-incubation [3] | activity considering MIC value/efficacy upon fuel co-incubation [4] | activity considering MIC value/efficacy upon fuel co-incubation [5] | activity considering MIC value/efficacy upon fuel co-incubation [6] | R t, retention time of peptide on HPLC column as a function of peptide hydrophobicity [7] [min] | Score [8] | MIC ([9]; ATCC 39327) [µM] | MIC ([10]; ATCC 14580) [µM] | MIC [11] [µM] | MIC [12] [µM] | MIC [13] [µM] | MIC [14] [µM] | MIC [9, 15] [µM] | MIC [10, 15] [µM] | MIC [13, 15] [µM]
CC[C@H](C)[C@H](N)C(=O)N[C@@H](CC(C)C)C(=O)N[C@H](C(=O)N[C@@H](Cc1c[nH]c2ccccc12)C(=O)N[C@@H](CCCCN)C(=O)N[C@@H](Cc1c[nH]c2ccccc12)C(=O)N1CCC[C@H]1C(=O)N[C@@H](Cc1c[nH]c2ccccc12)C(=O)N[C@@H](Cc1c[nH]c2ccccc12)C(=O)N1CCC[C@H]1C(=O)N[C@@H](Cc1c[nH]c2ccccc12)C(=O)N[C@@H](CCCNC(=N)N)C(=O)N[C@@H](CCCNC(=N)N)C(=O)O)C(C)C [P12] | + | X | X | X | + | X | + | + | X | 12.903 | 4 | 7.8 | 3.9 | 0.9 | 0.9 | 0.9 | 0.9 | – | – | –
CC[C@H](C)[C@H](N)C(=O)N[C@@H](CC(C)C)C(=O)N[C@@H](Cc1c[nH]c2ccccc12)C(=O)N[C@@H](Cc1c[nH]c2ccccc12)C(=O)N[C@@H](CCCCN)C(=O)N[C@@H](Cc1c[nH]c2ccccc12)C(=O)N1CCC[C@H]1C(=O)N[C@@H](Cc1c[nH]c2ccccc12)C(=O)N[C@@H](Cc1c[nH]c2ccccc12)C(=O)N1CCC[C@H]1C(=O)N[C@@H](Cc1c[nH]c2ccccc12)C(=O)N[C@@H](CCCNC(=N)N)C(=O)N[C@@H](CCCNC(=N)N)C(=O)O [P15] | + | X | X | X | X | X | + | + | X | 14.327 | 3 | – | 0.9 | – | – | 0.9 | 0.9 | – | – | –
ILPWKFPWWPWRR [P9] | + | X | X | X | + | + | + | X | X | 12.610 | 4 | 31.25 | 3.9 | 0.9 | 0.9 | 7.8 | 0.9 | – | – | –
ILPWRWPWWPWRR [P10] | X | X | X | X | X | X | + | X | X | 12.417 | 1 | – | – | – | – | – | – | 31.25 | 3.9 | 7.8
